According to the supplement of paper PMC10331698:
± gives the standard deviation of the averaged measurements.

What was measured:
Test in all cases: level (log10 ratio to DMSO vehicle control); higher = higher biomarker level / cell amount than vehicle control
[1] = compound: C=C(C)C(=O)OCCC(F)(F)C(F)(F)C(F)(F)C(F)(F)C(F)(F)C(F)(F)F [6:2 Fluorotelomer methacrylate]; conditions: in DMSO
Description: (§1)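 BioMAP Diversity Plus panel of 12 human primary cell co-culture systems (3C, 4H, LPS, SAg, BT, BF4T, BE3C, CASM3C, HDF3CGF, KF3CT, MyoF, Mphg). Compounds were added 1 h before stimulation and left for 24 h (MyoF 48 h; BT 72 h for soluble read-outs or 6 d for IgG). Biomarkers were read by ELISA, cytotoxicity by SRB, PBMC viability and proliferation by Alamar Blue. Each well value was divided by the mean of 8 DMSO control wells on the same plate and log10 transformed; duplicate blinded samples were tested at 4 concentrations.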

[2] = compound: C=CC(=O)OCC(F)(F)C(F)(F)C(F)(F)COC(=O)C=C [1H,1H,5H,5H-Perfluoro-1,5-pentanediol diacrylate]; conditions: 6700 nM; in DMSO
Description: as §1

[3] = compound: FC(F)(F)C(F)(F)C(F)(F)C(F)(F)C(F)(F)C(F)(F)CC1CO1 [3-(Perfluorohexyl)-1,2-epoxypropane]; conditions: in DMSO
Description: as §1

[4] = compound: FC(F)(F)C(F)(F)C(F)(F)CC1CO1 [1H,1H-Heptafluorobutyl epoxide]; conditions: in DMSO
Description: as §1

[5] = compound: NC(=O)C(F)(F)C(F)(F)C(F)(F)C(F)F; conditions: in DMSO
Description: as §1

[6] = compound: O=S(=O)(O)C(F)(F)C(F)(F)C(F)(F)C(F)(F)C(F)(F)C(F)(F)C(F)(F)C(F)(F)C(F)(F)C(F)(F)F [Sodium perfluorodecanesulfonate]; conditions: in DMSO
Description: as §1

[7] = compound: O=S(=O)(O)CCC(F)(F)C(F)(F)C(F)(F)C(F)(F)C(F)(F)C(F)(F)F [6:2 Fluorotelomer sulfonic acid]; conditions: in DMSO
Description: as §1

| Test System | level (log10) ([1]; 6700 nM) | level (log10) ([1]; 20000 nM) | level (log10) ([1]; 60000 nM) | level (log10) [2] | level (log10) ([3]; 6700 nM) | level (log10) ([3]; 20000 nM) | level (log10) ([3]; 60000 nM) | level (log10) ([4]; 6700 nM) | level (log10) ([4]; 20000 nM) | level (log10) ([4]; 60000 nM) | level (log10) ([5]; 6700 nM) | level (log10) ([5]; 20000 nM) | level (log10) ([5]; 60000 nM) | level (log10) ([6]; 1500 nM) | level (log10) ([6]; 4400 nM) | level (log10) ([6]; 13000 nM) | level (log10) ([6]; 40000 nM) | level (log10) ([7]; 6700 nM) | level (log10) ([7]; 20000 nM) | level (log10) ([7]; 60000 nM) |
| --- | --- | --- | --- | --- | --- | --- | --- | --- | --- | --- | --- | --- | --- | --- | --- | --- | --- | --- | --- | --- |
| HDF3CGF:SRB | 0.02 ± 0.0071 | 0.0315 ± 0.005 | 0.033 ± 0.013 | -0.458 ± 0.051 | -0.001 ± 0.031 | -0.0035 ± 0.015 | -0.006 ± 0.04 | -0.0095 ± 0.029 | -0.0105 ± 0.0021 | 0.0375 ± 0.0064 | -0.007 ± 0.0042 | 0.0065 ± 0.016 | -0.0035 ± 0.015 | 0.014 ± 0.0099 | -0.0075 ± 0.035 | 0.104 ± 0.0092 | 0.198 | 0.0055 ± 0.044 | 0.0255 ± 0.056 | 0.023 ± 0.085 |
| MyoF:TIMP-1 | -0.036 ± 0.062 | -0.0135 ± 0.066 | -0.017 ± 0.041 | -0.002 ± 0.0014 | -0.0295 ± 0.046 | -0.028 ± 0.027 | 0.033 ± 0.03 | -0.025 ± 0.018 | -0.023 ± 0.035 | -0.0125 ± 0.015 | -0.031 ± 0.011 | -0.024 ± 0.023 | -0.0505 ± 0.00071 | -0.037 ± 0.014 | -0.0445 ± 0.016 | -0.0415 ± 0.04 | -0.0725 ± 0.044 | -0.032 ± 0.052 | 0.031 ± 0.042 | 0.097 ± 0.011 |
| BE3C:Keratin 8/18 | -0.051 ± 0.055 | -0.0445 ± 0.053 | -0.0305 ± 0.035 | -0.0055 ± 0.044 | -0.0045 ± 0.00071 | -0.0115 ± 0.00071 | 0.0015 ± 0.018 | -0.0125 ± 0.011 | 0.019 ± 0.021 | 0.011 ± 0.047 | -0.0045 ± 0.0092 | -0.0025 ± 0.005 | -0.0185 ± 0.033 | 0.0095 ± 0.015 | 0.0065 ± 0.023 | -0.0345 ± 0.012 | -0.302 ± 0.0071 | 0.001 ± 0.0071 | -0.0185 ± 0.00071 | -0.0085 ± 0.019 |
| KF3CT:CXCL8/IL-8 | -0.004 ± 0.0057 | 0.0085 ± 0.011 | -0.007 ± 0.011 | -0.041 ± 0.027 | 0.012 ± 0.018 | 0.0175 ± 0.022 | 0.022 ± 0.0042 | -0.021 ± 0.027 | -0.0135 ± 0.03 | 0.0015 ± 0.0035 | -0.009 ± 0.0028 | 0.011 ± 0.011 | 0.019 ± 0.011 | 0 ± 0.044 | -0.0125 ± 0.0064 | -0.0175 ± 0.012 | -0.0105 ± 0.005 | -0.0005 ± 0.035 | -0.001 ± 0.027 | -0.0455 ± 0.022 |
| BE3C:SRB | 0.0015 ± 0.0035 | 0.003 ± 0.0028 | 0.0025 ± 0.0021 | -0.0035 ± 0.0021 | 0.008 ± 0.0057 | 0.0025 ± 0.0064 | 0.011 ± 0.018 | -0.0035 ± 0.00071 | 0.0015 ± 0.00071 | 0.007 | -0.0035 ± 0.0035 | 0.0005 ± 0.005 | -0.0055 ± 0.0021 | 0.0005 ± 0.0021 | 0 ± 0.0014 | -0.0555 ± 0.028 | -0.368 ± 0.069 | -0.005 ± 0.0099 | -0.001 ± 0.0028 | 0.0055 ± 0.011 |
| KF3CT:uPA | -0.016 ± 0.013 | -0.011 ± 0.023 | -0.0015 ± 0.0078 | -0.0035 ± 0.013 | 0.006 ± 0.011 | 0.001 ± 0.011 | -0.0015 ± 0.005 | -0.0085 ± 0.047 | 0.017 ± 0.067 | -0.019 ± 0.033 | 0.008 ± 0.025 | -0.0125 ± 0.028 | -0.008 ± 0.021 | -0.0325 ± 0.016 | 0.0025 ± 0.018 | -0.001 ± 0.037 | 0.0035 ± 0.0021 | 0.0015 ± 0.005 | -0.0115 ± 0.019 | 0.008 ± 0.03 |
| MyoF:Collagen IV | -0.075 ± 0.11 | -0.0395 ± 0.076 | -0.02 ± 0.1 | 0.03 ± 0.047 | 0.002 ± 0.025 | 0.0185 ± 0.0021 | 0.0425 ± 0.053 | -0.0125 ± 0.015 | 0 ± 0.0099 | 0.001 ± 0.035 | -0.0075 ± 0.0035 | -0.007 ± 0.028 | 0.014 ± 0.038 | 0.014 ± 0.02 | 0.035 ± 0.0085 | 0.0215 ± 0.0035 | 0.0065 ± 0.033 | -0.0185 ± 0.033 | -0.006 ± 0.023 | -0.002 ± 0.014 |
| KF3CT:MMP-9 | -0.0275 ± 0.056 | -0.0145 ± 0.03 | -0.009 ± 0.0042 | -0.0525 ± 0.043 | -0.014 ± 0.0042 | -0.0225 ± 0.00071 | -0.0155 ± 0.025 | -0.0085 ± 0.028 | -0.012 ± 0.0099 | -0.0205 ± 0.013 | -0.0095 ± 0.013 | 0.002 ± 0.025 | 0.0125 ± 0.023 | -0.01 ± 0.0085 | -0.0325 ± 0.0078 | -0.0735 ± 0.012 | -0.139 ± 0.036 | -0.0285 ± 0.019 | 0.0085 ± 0.018 | 0.026 ± 0.0028 |
| KF3CT:IL-1alpha | -0.033 ± 0.025 | -0.0395 ± 0.029 | -0.0335 ± 0.026 | -0.125 ± 0.02 | -0.0185 ± 0.0078 | 0.0085 ± 0.018 | 0.0015 ± 0.0021 | -0.009 ± 0.011 | -0.0255 ± 0.015 | 0.0095 ± 0.037 | -0.0165 ± 0.011 | -0.0265 ± 0.005 | 0.008 ± 0.045 | 0.0125 ± 0.018 | -0.0295 ± 0.005 | -0.0545 ± 0.0035 | -0.045 ± 0.02 | 0.0115 ± 0.016 | 0.0005 ± 0.016 | -0.0255 ± 0.039 |
| BE3C:PAI-I | -0.0115 ± 0.037 | -0.019 ± 0.034 | -0.016 ± 0.033 | 0.0535 ± 0.0064 | -0.003 ± 0.0014 | -0.006 ± 0.0028 | 0.013 ± 0.0099 | 0.0035 ± 0.0092 | 0.0075 ± 0.005 | 0.0165 ± 0.025 | 0.0065 ± 0.0064 | -0.0055 ± 0.0035 | 0 ± 0.0028 | -0.0925 ± 0.036 | -0.106 ± 0.022 | -0.26 ± 0.058 | -0.406 ± 0.013 | -0.005 ± 0.0014 | 0.011 ± 0.0085 | 0.0435 ± 0.016 |
| CASM3C:CXCL8/IL-8 | 0.0185 ± 0.018 | 0.0165 ± 0.012 | 0.0205 ± 0.00071 | -0.0125 ± 0.00071 | 0.011 ± 0.016 | 0.011 ± 0.0099 | 0.0295 ± 0.025 | 0 ± 0.017 | 0.0005 ± 0.0078 | -0.0035 ± 0.00071 | -0.006 | -0.006 | 0.004 ± 0.031 | 0.025 ± 0.016 | 0.01 ± 0.037 | 0.03 ± 0.021 | 0.064 ± 0.034 | 0.007 ± 0.0042 | -0.016 ± 0.011 | 0.0185 ± 0.019 |
| KF3CT:CXCL9/MIG | 0.012 ± 0.0042 | 0.01 ± 0.0028 | 0.01 ± 0.02 | -0.0275 ± 0.013 | 0 | 0.01 ± 0.0057 | 0.0115 ± 0.0021 | -0.0095 ± 0.00071 | -0.002 ± 0.025 | -0.0085 ± 0.012 | 0.019 ± 0.018 | 0.006 ± 0.02 | 0.0145 ± 0.0078 | 0.0005 ± 0.0064 | -0.0045 ± 0.0021 | 0.0015 ± 0.0092 | 0 ± 0.0042 | 0.0005 ± 0.013 | -0.0025 ± 0.022 | 0.0005 ± 0.013 |
| CASM3C:CD106/VCAM-1 | -0.0005 ± 0.011 | -0.005 ± 0.016 | -0.005 ± 0.0042 | -0.119 ± 0.011 | -0.024 ± 0.0099 | -0.0175 ± 0.022 | -0.01 ± 0.034 | -0.015 ± 0.035 | -0.031 ± 0.014 | 0.0055 ± 0.013 | -0.009 ± 0.0057 | -0.003 ± 0.014 | -0.008 ± 0.014 | -0.043 ± 0.037 | -0.0795 ± 0.026 | -0.158 ± 0.037 | -0.153 ± 0.045 | -0.008 ± 0.011 | -0.0325 ± 0.022 | -0.0605 ± 0.026 |
| HDF3CGF:CXCL8/IL-8 | 0.007 ± 0.018 | 0.0045 ± 0.015 | 0.0035 ± 0.011 | -1.07 ± 0.012 | -0.0175 ± 0.0035 | 0.005 ± 0.0028 | 0.0145 ± 0.0064 | -0.0075 ± 0.022 | -0.0115 ± 0.0078 | 0.0005 ± 0.0078 | -0.0085 ± 0.0035 | 0.0015 ± 0.0078 | 0.0045 ± 0.018 | -0.0055 ± 0.0035 | -0.0095 ± 0.005 | 0.0165 ± 0.016 | 0.023 ± 0.0028 | -0.01 ± 0.014 | -0.007 ± 0.013 | 0.008 ± 0.037 |
